Measured values published in ChEMBL document CHEMBL1127915, “Isolation and structure of the symmetrical disteroidal alkaloids cephalostatin 12 and cephalostatin 13” (1994).
≈ marks a conversion by molar mass, not a printed value.

What was measured:
[1] = tested on: Panel (Carcinoma cell lines); assay: Inhibitory activity against human cancer cell line growth was determined; type: functional
[2] = tested on: Panel (Carcinoma cell lines); assay: Effective dose for human cancer cell line growth inhibition was determined; type: functional; conditions: read-out: ED50 (the source's name)

| SMILES | GI50 [1] | EC50 [2] |
| --- | --- | --- |
| C[C@@H]1[C@]2(O[C@H]3C=C4[C@@H]5CC[C@H]6Cc7nc8c(nc7C[C@]6(C)[C@H]5C[C@@H](O)[C@]4(C)[C@]31O)C[C@@H]1CC[C@H]3C4=C[C@@H]5O[C@]6(O[C@](C)(CO)C[C@H]6O)[C@@H](C)[C@]5(O)[C@@]4(C)[C@H](O)C[C@@H]3[C@@]1(C)C8)O[C@](C)(CO)C[C@H]2O [CEPHALOSTATIN 12] | 400 nM | 0.072 µg/mL (≈ 0.0762 µM) |
| C[C@@H]1[C@]2(O[C@H]3C=C4[C@@H]5CC[C@H]6Cc7nc8c(nc7C[C@]6(C)[C@H]5C[C@@H](O)[C@]4(C)[C@]31O)C[C@@H]1CC[C@H]3C4=CC[C@@H]5[C@H](C)[C@@]6(OC[C@]45C(=O)C[C@@H]3[C@@]1(C)C8)OC(C)(C)C[C@H]6O)O[C@](C)(CO)C[C@H]2O [CEPHALOSTATIN 1] | 1 nM | – |
| C[C@@H]1[C@]2(O[C@H]3C=C4[C@@H]5CC[C@H]6Cc7nc8c(nc7C[C@]6(C)[C@H]5C[C@@H](O)[C@]4(C)[C@]31O)C[C@@H]1CC[C@H]3C4=C[C@@H]5O[C@]6(O[C@](C)(CO)C[C@H]6O)[C@@H](C)[C@]5(O)[C@@]4(C)[C@H](O)C[C@@H]3[C@@]1(C)[C@H]8O)O[C@](C)(CO)C[C@H]2O [CEPHALOSTATIN 13] | > 1000 nM | 0.046 µg/mL (≈ 0.0479 µM) |
